The text below walks through data of patent US12643887B2, “Heterocyclic derivatives with cardiomyocyte proliferation activity for treatment of heart diseases” (Tongji University, priority 2019, dated 2026).

In test [1] the target is T1, human GSK3 beta (Homo sapiens, UniProt P49841).
T1 construct: Recombinant full-length human GSK3 beta (expressed in Sf9 insect cells with an N-terminal His tag); His (N); purchased SignalChem G09-10H; host or cells: Sf9 insect cells
As to the kind of experiment: GSK3 beta enzyme assay (ADP-Glo). The class given is biochemical. The following applies: ATP 25 μM, read-out: GSK3b IC50. The procedure, abridged: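 Full-length His-tagged human GSK3β from Sf9 cells (4 nM) preincubated 30 min at 25 °C with inhibitor in Tris pH 7.5/MgCl2/BSA/DTT, then reacted 60 min at 25 °C with 13 μM substrate peptide and 25 μM ATP. ADP measured by ADP-Glo luminescence; IC50 from four-parameter logistic fit of % inhibition.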

The target of test [2] is T2, human CK2a2 (CSNK2a2) (Homo sapiens, UniProt P19784).
T2 construct: Recombinant human CK2a2 (CSNK2a2) (full length); GST (N); purchased SignalChem C71-10G; host or cells: Sf9 insect cells
The test can be described thus: CK2a2 (CSNK2a2) enzyme assay (ADP-Glo). The class given is biochemical. The following applies: ADP-Glo, ATP 15 μM; read-out: CK2 alpha 2 IC50. As for the experimental part: 8. CK2a2 (CSNK2a2) Enzyme Assay
The ability of compounds to inhibit human CK2a2 (CSNK2a2) kinase activities was determined using a commercially available ADP-Glo™ Kinase Assay kit (Promega, Cat #V9102) according to the manufacturer's protocol.
Recombinant human CK2a2 (CSNK2a2) (full length) (expressed in Sf9 insect cells with an N-terminal GST tag) was purchased from SignalChem (Cat #C71-10G). CK2 substrate (sequence: […]) was purchased from SignalChem (Cat #C08-58). This assay, run in a 384-well plate format, is a generic method for measuring kinase activities using an ADP-Glo Kinase Assay Kit. The basic assay procedure involves two steps: (1) Enzymatic step: inhibitors are incubated with the kinase and then ATP (included in the ADP-Glo Kinase Assay Kit) and the MBP protein are added to start the enzymatic reaction; (2) Detection step: after the kinase reaction, first ADP-Glo™ Reagent is added to terminate the kinase reaction and deplete the remaining ATP. Second, the Kinase Detection Reagent is added to simultaneously convert ADP to ATP and allow the newly synthesized ATP to be measured using a luciferase/luciferin reaction. The light generated is measured using a luminometer.
Briefly, CK2a2 (CSNK2a2) (7 nM) in the enzymatic buffer solutions (40 mM Tris, pH 7.5, 20 mM MgCl2, 0.1 mg/ml BSA, 50 μM DTT) were mixed with various concentrations of inhibitors (dissolved in 100% DMSO). These solutions were incubated for 30 minutes at 25° C., and subsequently a mixture of substrate peptide and ATP was added with the final peptide and ATP concentrations at 0.04 mg/ml and 15 μM, respectively. The final reaction mixture of enzyme-substrate-ATP-compound was incubated for 90 minutes at 25° C.
Afterwards ADP-Glo™ Reagent was added and the mixture was incubated at 25° C. for 60 minutes. Then Kinase Detection Reagent was added, and the final mixture was incubated at 25° C. for 60 minutes. The luminescence signal of the final solution was measured on an Envision instrument (PerkinElmer). The percent (%) inhibition at each concentration of a compound is calculated relative to the luminescence signal in the Max and Min control wells contained within each assay plate. […] The concentrations and percent inhibition values for a test compound are plotted and the concentration of the compound required to achieve 50% inhibition (IC50) is determined with a four-parameter logistic dose response equation.

The structures appear in SMILES notation.

T1 sequence (P49841 whole entry): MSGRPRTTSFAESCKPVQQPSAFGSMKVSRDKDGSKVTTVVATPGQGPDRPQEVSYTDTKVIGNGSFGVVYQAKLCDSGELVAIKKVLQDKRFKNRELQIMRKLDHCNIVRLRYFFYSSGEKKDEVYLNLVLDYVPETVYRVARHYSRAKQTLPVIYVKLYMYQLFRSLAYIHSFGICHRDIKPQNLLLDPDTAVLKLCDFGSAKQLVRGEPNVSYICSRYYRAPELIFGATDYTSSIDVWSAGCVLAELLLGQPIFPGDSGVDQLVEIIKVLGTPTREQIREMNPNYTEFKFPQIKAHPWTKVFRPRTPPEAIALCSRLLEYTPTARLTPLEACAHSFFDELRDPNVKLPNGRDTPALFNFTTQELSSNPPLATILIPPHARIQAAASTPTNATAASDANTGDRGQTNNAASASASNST
T2 sequence (P19784 whole entry): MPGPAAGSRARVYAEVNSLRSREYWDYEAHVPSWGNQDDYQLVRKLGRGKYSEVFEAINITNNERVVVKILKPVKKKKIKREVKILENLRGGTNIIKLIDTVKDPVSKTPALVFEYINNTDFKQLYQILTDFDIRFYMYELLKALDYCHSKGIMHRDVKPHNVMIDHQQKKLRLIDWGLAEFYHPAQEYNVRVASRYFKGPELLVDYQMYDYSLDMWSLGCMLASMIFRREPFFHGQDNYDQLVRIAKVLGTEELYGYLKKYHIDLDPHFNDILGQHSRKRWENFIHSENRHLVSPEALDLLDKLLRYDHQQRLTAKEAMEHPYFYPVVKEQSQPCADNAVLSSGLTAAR

For the compound `CN(Cc1ccccc1)C1=N/C(=C\c2ccc3c(c2)OCO3)C(=O)N1` [Example 23, (Z)-5-(benzo[d][1,3]dioxol-5-ylmethylene)-2-(benzyl(methyl)amino)-3,5-dihydro-4H-imidazol-4-one], the IC50 in test [1] and in test [2] was above 10 µM throughout.

Turning to `CN(C1=N/C(=C\c2ccc3ncsc3c2)C(=O)N1)c1ccc2ncsc2c1` [Example 83, (Z)-2-(benzo[d]thiazol-6-yl(methyl)amino)-5-(benzo[d]thiazol-6-ylmethylene)-3,5-dihydro-4H-imidazol-4-one], the IC50 in test [1] lay within 1 to 10 µM; in test [2] it was 0.1 to 1 µM.

On to `O=C1NC(N(Cc2ccccc2)c2ccccc2)=N/C1=C\c1ccc2c(c1)OCO2` [Example 22, (Z)-5-(benzo[d][1,3]dioxol-5-ylmethylene)-2-(benzyl(phenyl)amino)-3,5-dihydro-4H-imidazol-4-one], for which the half-maximal inhibitory concentration (IC50) in test [1] and in test [2] was above 10 µM each time.
